The record followed here is US10112941B2, “Tricyclic compounds as anticancer agents” (BRISTOL-MYERS SQUIBB COMPANY, priority 2013, dated 2018).

Bounds are passed on as bounds.

The IC50 is the concentration at which inhibition is half-maximal.

The target in this assay is BRD4 (Homo sapiens, UniProt O60885). Nature of the assay: Time Resolved Fluorescence Resonance Energy Transfer (TR-FRET) binding assay, BRD4. As to conditions: one of the FRET assays described; read-out: FRET BRD4 IC50. (TR-FRET usually uses a lanthanide donor and a delayed reading to cut background.)
For the compound `Cc1nnn(C)c1-c1cnc2c3ccc(C(C)(C)O)cc3n(C(c3ncccn3)C3CCOCC3)c2c1` (single isomer, unassigned) [Example 292], the IC50 was below 5 nM.

Consider `Cc1nnn(C)c1-c1cnc2c3ccc(C(C)(C)O)cc3n(C(c3ncccc3F)C3CCOCC3)c2c1` (single isomer, unassigned) [Example 293], for which the concentration for half-maximal inhibition (IC50) is below 5 nM.

In the case of `Cc1nnn(C)c1-c1cnc2c3ccc(C(C)(C)O)cc3n(C(c3ncccc3F)C3CCOCC3)c2c1` (single isomer, unassigned) [Example 294], the IC50 was below 5 nM.

Regarding `Cc1cccc(C(C2CCOCC2)n2c3cc(C(C)(C)O)ccc3c3ncc(-c4c(C)nnn4C)cc32)n1` (single isomer, unassigned) [Example 295], the IC50 is below 5 nM.

Consider `Cc1nnn(C)c1-c1cnc2c3ccc(C(C)(C)O)cc3n(C(c3cccnn3)C3CCOCC3)c2c1` (single isomer, unassigned) [Example 296], for which the half-maximal inhibitory concentration (IC50) is below 5 nM.

For `Cc1nnn(C)c1-c1cnc2c3ccc(C(C)(C)O)cc3n(C(c3cc(Cl)ccn3)C3CCOCC3)c2c1` (single isomer, unassigned) [Example 297], the IC50 was below 5 nM.

In the case of `Cc1nnn(C)c1-c1cnc2c3ccc(C(C)(C)O)cc3n(C(c3cc(Cl)ccn3)C3CCOCC3)c2c1` (single isomer, unassigned) [Example 298], the half-inhibitory concentration (IC50) was below 25 nM.

For `Cc1noc(C(C2CCOCC2)n2c3cc(C(C)(C)O)ccc3c3ncc(-c4c(C)nnn4C)cc32)n1` (single isomer, unassigned) [Example 299], the concentration for half-maximal inhibition (IC50) is below 5 nM.

Consider `Cc1noc(C(C2CCOCC2)n2c3cc(C(C)(C)O)ccc3c3ncc(-c4c(C)nnn4C)cc32)n1` (single isomer, unassigned) [Example 300], for which the concentration for half-maximal inhibition (IC50) was below 25 nM.

With `Cc1cccnc1C(C1CCOCC1)n1c2cc(C(C)(C)O)ccc2c2ncc(-c3c(C)nnn3C)cc21` (single isomer, unassigned) [Example 301], the IC50 is below 5 nM.

Regarding `Cc1cccnc1C(C1CCOCC1)n1c2cc(C(C)(C)O)ccc2c2ncc(-c3c(C)nnn3C)cc21` (single isomer, unassigned) [Example 302], the IC50 was below 5 nM.

As for `Cc1nnn(C)c1-c1cnc2c3ccc(C(C)(C)O)cc3n(C(c3ncccc3Cl)C3CCOCC3)c2c1` (single isomer, unassigned) [Example 303], the concentration for half-maximal inhibition (IC50) was below 5 nM.

Consider `Cc1nnn(C)c1-c1cnc2c3ccc(C(C)(C)O)cc3n(C(c3ncccc3Cl)C3CCOCC3)c2c1` (single isomer, unassigned) [Example 304], for which the half-maximal inhibitory concentration (IC50) is below 5 nM.

In the case of `Cc1nnn(C)c1-c1cnc2c3ccc(C(C)(C)O)c(F)c3n(C(c3ncccc3F)C3CCOCC3)c2c1` (single isomer, unassigned) [Example 305], the IC50 is below 5 nM.

As to `Cc1cc(C(C2CCOCC2)n2c3cc(C(C)(C)O)ccc3c3ncc(-c4c(C)noc4C)cc32)no1` (single isomer, unassigned) [Example 306], the concentration for half-maximal inhibition (IC50) was below 5 nM.

Regarding `Cc1cc(C(C2CCOCC2)n2c3cc(C(C)(C)O)ccc3c3ncc(-c4c(C)noc4C)cc32)no1` (single isomer, unassigned) [Example 307], the IC50 is below 25 nM.

As to `[2H]C([2H])([2H])c1nnn(C)c1-c1cnc2c3ccc(C(C)(C)O)cc3n(C(c3ccncc3F)C3CCOCC3)c2c1` (single isomer, unassigned) [Example 310], the IC50 was below 5 nM.

As for `[2H]C([2H])([2H])c1nnn(C)c1-c1cnc2c3ccc(C(C)(C)O)cc3n(C(c3ccncc3F)C3CCOCC3)c2c1` (single isomer, unassigned) [Example 311], the IC50 is below 5 nM.

Regarding `[2H]C([2H])([2H])c1nnn(C)c1-c1cnc2c3c(OC)cc(C(C)(C)O)cc3n(C(c3cc(C)on3)C3CCOCC3)c2c1` (single isomer, unassigned) [Example 312], the half-inhibitory concentration (IC50) was below 5 nM.

As to `[2H]C([2H])([2H])c1nnn(C)c1-c1cnc2c3cc(F)c(C(C)(C)O)cc3n(C(c3cc(C)on3)C3CCOCC3)c2c1` (single isomer, unassigned) [Example 313], the IC50 was below 5 nM.

On to `[2H]C([2H])([2H])c1nnn(C)c1-c1cnc2c3ccc(C(C)(C)O)c(F)c3n(C(c3cc(C)on3)C3CCOCC3)c2c1` (single isomer, unassigned) [Example 314], for which the half-inhibitory concentration (IC50) was below 5 nM.

In the case of `[2H]C([2H])([2H])c1nnn(C)c1-c1cnc2c3ccc(C(C)(C)O)cc3n(C(c3ncccc3F)C3CCOCC3)c2c1` (single isomer, unassigned) [Example 315], the IC50 is below 5 nM.

Turning to `[2H]C([2H])([2H])c1nnn(C)c1-c1cnc2c3ccc(C(C)(C)O)cc3n(C(c3ncccc3F)C3CCOCC3)c2c1` (single isomer, unassigned) [Example 316], the half-inhibitory concentration (IC50) is below 5 nM.

Turning to `[2H]C([2H])([2H])c1nnn(C)c1-c1cnc2c3ccc(C(C)(C)O)cc3n(C(c3ccc(F)cn3)C3CCOCC3)c2c1` (single isomer, unassigned) [Example 317], the half-inhibitory concentration (IC50) is below 5 nM.

Turning to `[2H]C([2H])([2H])c1nnn(C)c1-c1cnc2c3ccc(C(C)(C)O)cc3n(C(c3ncccc3C(F)(F)F)C3CCOCC3)c2c1` (single isomer, unassigned) [Example 318], the 50% inhibitory concentration (IC50) was below 5 nM.

`[2H]C([2H])([2H])c1nnn(C)c1-c1cnc2c3ccc(C(C)(C)O)cc3n(C(c3ncccc3C(F)(F)F)C3CCOCC3)c2c1` (single isomer, unassigned) [Example 319]: the IC50 is below 5 nM.

On to `[2H]C([2H])([2H])c1nnn(C)c1-c1cnc2c3ccc(C(C)(C)O)cc3n(C(c3ccc(Cl)cn3)C3CCOCC3)c2c1` (single isomer, unassigned) [Example 320], for which the concentration for half-maximal inhibition (IC50) was below 5 nM.

With `[2H]C([2H])([2H])c1nnn(C)c1-c1cnc2c3ccc(C(C)(C)O)cc3n(C(c3ncccc3Cl)C3CCOCC3)c2c1` (single isomer, unassigned) [Example 321], the 50% inhibitory concentration (IC50) was below 5 nM.

Regarding `[2H]C([2H])([2H])c1nnn(C)c1-c1cnc2c3ccc(C(C)(C)O)cc3n(C(c3ncccc3Cl)C3CCOCC3)c2c1` (single isomer, unassigned) [Example 322], the concentration for half-maximal inhibition (IC50) is below 5 nM.

Take `[2H]C([2H])([2H])c1nnn(C)c1-c1cnc2c3ccc(C(C)(C)O)c(F)c3n(C(c3ccc(F)cn3)C3CCOCC3)c2c1` (single isomer, unassigned) [Example 323]: the IC50 is below 25 nM.

Take `[2H]C([2H])([2H])c1nnn(C)c1-c1cnc2c3ccc(C(C)(C)O)c(F)c3n(C(c3ccc(F)cn3)C3CCOCC3)c2c1` (single isomer, unassigned) [Example 324]: the IC50 was below 25 nM.

Take `[2H]C([2H])([2H])c1nnn(C)c1-c1cnc2c3cc(F)c(C(C)(C)O)cc3n(C(c3cc(OC)ccn3)C3CCOCC3)c2c1` (single isomer, unassigned) [Example 325]: the IC50 is below 5 nM.

Take `[2H]C([2H])([2H])c1nnn(C)c1-c1cnc2c3cc(F)c(C(C)(C)O)cc3n(C(c3cc(OC)ccn3)C3CCOCC3)c2c1` (single isomer, unassigned) [Example 326]: the concentration for half-maximal inhibition (IC50) was below 25 nM.

Consider `Cc1cc(C(C2CCOCC2)n2c3cc(C(C)(C)O)ccc3c3ncc(-c4c(C)nnn4C)cc32)n(C)n1` (single isomer, unassigned) [Example 341, 2-[3-(Dimethyl-1H-1,2,3-triazol-5-yl)-5-[(1,3-dimethyl-1H-pyrazol-5-yl)(oxan-4-yl)methyl]-5H-pyrido[3,2-b]indol-7-yl]propan-2-ol], for which the IC50 was below 5 nM.

In the case of `Cc1cc(C(C2CCOCC2)n2c3cc(C(C)(C)O)ccc3c3ncc(-c4c(C)nnn4C)cc32)n(C)n1` (single isomer, unassigned) [Example 342, 2-[3-(Dimethyl-1H-1,2,3-triazol-5-yl)-5-[(1,3-dimethyl-1H-pyrazol-5-yl)(oxan-4-yl)methyl]-5H-pyrido[3,2-b]indol-7-yl]propan-2-ol], the IC50 is below 25 nM.

For the compound `Cc1noc(C)c1-c1cnc2c3ccc(C(C)(C)O)cc3n(C(c3ncccc3F)C3CCOCC3)c2c1` (single isomer, unassigned) [Example 345, 2-[3-(Dimethyl-1,2-oxazol-4-yl)-5-[(3-fluoropyridin-2-yl)(oxan-4-yl)methyl]-5H-pyrido[3,2-b]indol-7-yl]propan-2-ol], the IC50 is below 5 nM.

On to `Cc1noc(C)c1-c1cnc2c3ccc(C(C)(C)O)cc3n(C(c3ncccc3F)C3CCOCC3)c2c1` (single isomer, unassigned) [Example 346, 2-[3-(Dimethyl-1,2-oxazol-4-yl)-5-[(3-fluoropyridin-2-yl)(oxan-4-yl)methyl]-5H-pyrido[3,2-b]indol-7-yl]propan-2-ol], for which the IC50 was below 5 nM.

Regarding `Cc1noc(C)c1-c1cnc2c3ccc(C(O)CC#N)cc3n([C@H](c3ccccc3)C3CCOCC3)c2c1` (single isomer, unassigned) [Example 373], the IC50 was below 5 nM.

`Cc1noc(C)c1-c1cnc2c3ccc(C(O)CC#N)cc3n([C@H](c3ccccc3)C3CCOCC3)c2c1` (single isomer, unassigned) [Example 374]: the IC50 is below 5 nM.

On to `Cc1nnn(C)c1-c1cnc2c3ccc(C(C)(C)O)cc3n(C(CC3CC3)C3CCOCC3)c2c1` (single isomer, unassigned) [Example 394], for which the IC50 was below 5 nM.

In the case of `Cc1nnn(C)c1-c1cnc2c3ccc(C(C)(C)O)cc3n(C(CC3CC3)C3CCOCC3)c2c1` (single isomer, unassigned) [Example 395], the IC50 is below 5 nM.

Turning to `Cc1nnn(C)c1-c1cnc2c3ccc(C(C)(C)O)cc3n(C(c3ccc(Cl)cc3)C3CCOCC3)c2c1` (single isomer, unassigned) [Example 398], the IC50 is below 5 nM.

As to `Cc1nnn(C)c1-c1cnc2c3ccc(C(C)(C)O)cc3n(C(c3ccc(Cl)cc3)C3CCOCC3)c2c1` (single isomer, unassigned) [Example 399], the 50% inhibitory concentration (IC50) is below 5 nM.

With `Cc1nnn(C)c1-c1cnc2c3ccc(C(C)(C)O)cc3n(C(c3cccc(Cl)c3)C3CCOCC3)c2c1` (single isomer, unassigned) [Example 400], the IC50 is below 5 nM.

Regarding `Cc1nnn(C)c1-c1cnc2c3ccc(C(C)(C)O)cc3n(C(c3cccc(Cl)c3)C3CCOCC3)c2c1` (single isomer, unassigned) [Example 401], the IC50 is below 5 nM.
